{
  "source": "patent US11571403B2",
  "about": "“Methods for the treatment of non-alcoholic steatohepatitis” (Eiger Biopharmaceuticals, Inc., priority 2016, dated 2023)",
  "type_in_all_cases": "in vivo",
  "key": {"[1]": {"tested_on": "STAM mouse model for NASH", "test": "NAFLD Activity Score by HE staining, STAM mouse NASH model (Example 1)", "details": "for Steatosis score 0, number of mice: score 0 = <5%; for Steatosis score 0, number of mice / Hepatocyte ballooning score 0, number of mice / Steatosis score 1, number of mice / Lobular inflammation score 1, number of mice / Hepatocyte ballooning score 1, number of mice / Lobular inflammation score 2, number of mice / Lobular inflammation score 3, number of mice / NAS (mean ± SD): 7 to 9 weeks of age; for Hepatocyte ballooning score 0, number of mice: score 0 = None; for Steatosis score 1, number of mice: score 1 = 5-33%; for Lobular inflammation score 1, number of mice: score 1 = <2 foci/200x; for Hepatocyte ballooning score 1, number of mice: score 1 = Few balloon cells; for Lobular inflammation score 2, number of mice: score 2 = 2-4 foci/200x; for Lobular inflammation score 3, number of mice: score 3 = >4 foci/200x", "description": "(§1) The STAM™ mouse is a model for NASH created by a combination of chemical and dietary interventions in C57BL/6 mice that manifest NASH at about 8 weeks, which progresses to fibrosis at about 12 weeks and then progresses to HCC at about 16 weeks. See, Saito et al., Sci. Rep. 2015, 5:12466.\n(§2) In the study, the control groups were as follows: (i) Untreated Disease Control—a group of STAM mice injected with streptozotocin (STZ, Sigma-Aldrich, USA) at 2 days old, and fed a high fat diet (HFD, 57 kcal % fat, Cat #HFD32, CLEA Japan, Japan) starting at 4 weeks old; and (ii) Positive Control—a group of STAM mice treated with telmisartan (10 mg/kg QD from 7 to 9 weeks). In addition to these control groups, test groups of STAM mice treated with a low dose of ubenimex (5 mg/kg ubenimex BID from 7 to 9 weeks) or a high dose of ubenimex (25 mg/kg BID from 7 to 9 weeks), were included in the study. The low dose is equivalent to a human dose of 30 mg BID. The high dose is equivalent to a human dose of 150 mg BID. The viability, clinical signs and behavior were monitored daily, including body weight, signs of toxicity, moribundity and mortality. The mice were maintained in a SPF facility under controlled conditions of temperature (23±2° C.), humidity (45±10%), lighting (12-hour artificial light and dark cycles; light from 8:00 to 20:00) and air exchange. A high pressure was maintained in the experimental room to prevent contamination of the facility. The mice were housed in TPX cages (CLEA Japan) with a maximum of 4 mice per case.\n(§3) All groups of mice were sacrificed at 9 weeks. Once sacrificed, the body weight of each mouse was recorded. The liver of each mouse was removed and weighed. The liver-to-body weight ratio was determined for each mouse. Blood serum levels of CK-18, ALT, and liver triglycerides were determined for each mouse. The livers were then sectioned and stained with hematoxylin and eosin (“HE”) stain, as well as Sirius red staining, to determine liver steatosis (ballooning) and fibrosis, respectively."}, "[2]": {"tested_on": "STAM mouse model for NASH", "test": "Biochemistry: plasma ALT and liver triglyceride, STAM mouse NASH model (Example 1)", "details": "7 to 9 weeks of age", "description": "as §1, §2, §3"}, "[3]": {"tested_on": "STAM mouse model for NASH", "test": "Fibrosis area by Sirius red staining, STAM mouse NASH model (Example 1)", "details": "7 to 9 weeks of age", "description": "as §1, §2, §3"}, "[4]": {"tested_on": "STAM mouse model for NASH", "test": "Plasma CK-18, STAM mouse NASH model (Example 1)", "description": "as §1, §2, §3"}},
  "data": [
    {"smiles": "CC(C)C[C@H](NC(=O)[C@@H](O)[C@H](N)Cc1ccccc1)C(=O)O", "note": "[Ubenimex, (2S)-2-[[(2S,3R)-3-amino-2-hydroxy-4-phenylbutanoyl]amino]-4-methylpentanoic acid]", "values": [
      {"measurement": "Hepatocyte ballooning compared with the control group", "setting": "[1]; high and low dose ubenimex groups (25 and 5 mg/kg BID, 7 to 9 weeks)", "result": "significantly decreased"},
      {"measurement": "Steatosis score 0, number of mice", "setting": "[1]; ubenimex 5 mg/kg BID", "result": 1},
      {"measurement": "Hepatocyte ballooning score 0, number of mice", "setting": "[1]; ubenimex 5 mg/kg BID", "result": 4},
      {"measurement": "Hepatocyte ballooning score 0, number of mice", "setting": "[1]; ubenimex 25 mg/kg BID", "result": 5},
      {"measurement": "Steatosis score 1, number of mice", "setting": "[1]; ubenimex 5 mg/kg BID", "result": 5},
      {"measurement": "Steatosis score 1, number of mice", "setting": "[1]; ubenimex 25 mg/kg BID", "result": 7},
      {"measurement": "Lobular inflammation score 1, number of mice", "setting": "[1]; ubenimex 5 mg/kg BID", "result": 1},
      {"measurement": "Hepatocyte ballooning score 1, number of mice", "setting": "[1]; ubenimex 5 mg/kg BID", "result": 2},
      {"measurement": "Hepatocyte ballooning score 1, number of mice", "setting": "[1]; ubenimex 25 mg/kg BID", "result": 2},
      {"measurement": "Lobular inflammation score 2, number of mice", "setting": "[1]; ubenimex 5 mg/kg BID", "result": 3},
      {"measurement": "Lobular inflammation score 2, number of mice", "setting": "[1]; ubenimex 25 mg/kg BID", "result": 5},
      {"measurement": "Lobular inflammation score 3, number of mice", "setting": "[1]; ubenimex 5 mg/kg BID", "result": 2},
      {"measurement": "Lobular inflammation score 3, number of mice", "setting": "[1]; ubenimex 25 mg/kg BID", "result": 2},
      {"measurement": "NAS (mean ± SD)", "setting": "[1]; ubenimex 5 mg/kg BID", "result": "3.3 ± 0.5"},
      {"measurement": "NAS (mean ± SD)", "setting": "[1]; ubenimex 25 mg/kg BID", "result": "3.6 ± 0.5"},
      {"measurement": "Liver triglyercide (mean ± SD)", "setting": "[2]; ubenimex 5 mg/kg BID", "result": "50.0 ± 22.7", "unit": "mg/g liver"},
      {"measurement": "Plasma ALT (mean ± SD)", "setting": "[2]; ubenimex 5 mg/kg BID", "result": "59 ± 22", "unit": "U/L"},
      {"measurement": "Liver triglyercide (mean ± SD)", "setting": "[2]; ubenimex 25 mg/kg BID", "result": "34.8 ± 22.2", "unit": "mg/g liver"},
      {"measurement": "Plasma ALT (mean ± SD)", "setting": "[2]; ubenimex 25 mg/kg BID", "result": "62 ± 11", "unit": "U/L"},
      {"measurement": "Sirius red-positive area (fibrosis area, mean ± SD)", "setting": "[3]; ubenimex 5 mg/kg BID", "result": "0.80 ± 0.16", "unit": "%"},
      {"measurement": "Sirius red-positive area (fibrosis area, mean ± SD)", "setting": "[3]; ubenimex 25 mg/kg BID", "result": "1.05 ± 0.14", "unit": "%"},
      {"measurement": "Plasma CK-18", "setting": "[4]; high dose ubenimex group (25 mg/kg BID, 7 to 9 weeks)", "result": "230.8±28.6", "unit": "mIU/mL"},
      {"measurement": "Plasma CK-18", "setting": "[4]; low dose ubenimex group (5 mg/kg BID, 7 to 9 weeks)", "result": "238.5±7.7", "unit": "mIU/mL"}
    ]},
    {"smiles": "CCCc1nc2c(C)cc(-c3nc4ccccc4n3C)cc2n1Cc1ccc(-c2ccccc2C(=O)O)cc1", "note": "[Telmisartan, telmisartan]", "values": [
      {"measurement": "Steatosis score 0, number of mice", "setting": "[1]; telmisartan 10 mg/kg QD", "result": 3},
      {"measurement": "Hepatocyte ballooning score 0, number of mice", "setting": "[1]; telmisartan 10 mg/kg QD", "result": 8},
      {"measurement": "Steatosis score 1, number of mice", "setting": "[1]; telmisartan 10 mg/kg QD", "result": 5},
      {"measurement": "Lobular inflammation score 1, number of mice", "setting": "[1]; telmisartan 10 mg/kg QD", "result": 2},
      {"measurement": "Lobular inflammation score 2, number of mice", "setting": "[1]; telmisartan 10 mg/kg QD", "result": 4},
      {"measurement": "Lobular inflammation score 3, number of mice", "setting": "[1]; telmisartan 10 mg/kg QD", "result": 2},
      {"measurement": "NAS (mean ± SD)", "setting": "[1]; telmisartan 10 mg/kg QD", "result": "2.6 + 0.9"},
      {"measurement": "Liver triglyercide (mean ± SD)", "setting": "[2]; telmisartan 10 mg/kg QD", "result": "22.4 ± 7.5", "unit": "mg/g liver"},
      {"measurement": "Plasma ALT (mean ± SD)", "setting": "[2]; telmisartan 10 mg/kg QD", "result": "44 ± 13", "unit": "U/L"},
      {"measurement": "Sirius red-positive area (fibrosis area, mean ± SD)", "setting": "[3]; telmisartan 10 mg/kg QD", "result": "0.71 ± 0.15", "unit": "%"},
      {"measurement": "Plasma CK-18", "setting": "[4]; telmisartan group (10 mg/kg QD, 7 to 9 weeks)", "result": "284.5±38.4", "unit": "mIU/mL"}
    ]}
  ]
}
